According to US20040198763A1, “Method of treating dry eye with a macrolide compound” (Sucampo AG, priority 2003, published 2004):

How the values were obtained:
[1] = tested on: Human patients diagnosed as having kerratoconjunctivitis sicca (KCS; dry eye); assay: Conjunctival lissamine green staining in dry eye patients treated with eye drops; assay type: in vivo; conditions: day 42, patients with Schirmer score <5 mm/5 min and SPK score at least 3
Description: Human patients diagnosed as having kerratoconjunctivitis sicca (KCS; dry eye) were treated with eye drops containing either various concentrations of tacrolimus, a macrolide compound according to the invention or placebo. Eye drops were administered 3 times per day for six weeks (42 days). Patients were evaluated using the Schirmer test; corneal fluorescein staining, conjunctival lissamine green staining and an ocular discomfort score. Conjunctival lissamine green staining was performed by instilling a drop of lissamine green ophthalmic solution into the cul-de-sac of the eye. Following instillation, punctate staining was evaluated for the nasal and temporal interpalpebral conjunctiva using the following scoring system: [table]

[2] = tested on: Human patients diagnosed as having kerratoconjunctivitis sicca (KCS; dry eye); assay: Ocular discomfort score in dry eye patients treated with eye drops; assay type: in vivo; conditions: day 42, patients with Schirmer score <5 mm/5 min and SPK score at least 3
Description: Human patients diagnosed as having kerratoconjunctivitis sicca (KCS; dry eye) were treated with eye drops containing either various concentrations of tacrolimus, a macrolide compound according to the invention or placebo. Eye drops were administered 3 times per day for six weeks (42 days). Patients were evaluated using the Schirmer test; corneal fluorescein staining, conjunctival lissamine green staining and an ocular discomfort score. Patients were also evaluated based on ratings of their ocular discomfort, which was a composite of scores for burning/stinging, irritation, photophobia, dry eye sensation and foreign body sensation. Scoring was on a five-point scale, as follows: [table]

[3] = 0.01% eye drops 3 times per day
[4] = 0.06% eye drops 3 times per day

## C=CCC1/C=C(\C)CC(C)CC(OC)C2OC(O)(C(=O)C(=O)N3CCCCC3C(=O)OC(/C(C)=C/C3CCC(O)C(OC)C3)C(C)C(O)CC1=O)C(C)CC2OC (stereo not shown) [macrolide compound]
[1]; [3]
  lissamine green staining decrease from baseline: 1.8±1.47 units
[1]; [4]
  lissamine green staining decrease from baseline: 3.9±2.03 units
[2]; [3]
  mean ocular discomfort decrease from baseline: 6.0±4.43 units
[2]; [4]
  mean ocular discomfort decrease from baseline: 6.8±3.01 units
